For test [1] the following is noted: associated with a 1000-mg calcium intake increase; women of various ages; estimate; cited from earlier work.
Test [2] is described as follows: double blind three-week study of calcium retention and absorption, inulin delivered in a RTE cereal (mass balance, stable isotope enrichment). Format: in vivo, human. The conditions noted are these: adolescent girls, ages 11-13, roughly 1600 mg calcium per day and 9 grams of inulin, three weeks. Here is the method:
In one double blind study ranging over a period of three weeks, a number of adolescent girls, ages 11-13, were provided with a diet containing roughly 1600 mg/calcium per day and 9 grams of inulin. The diet was delivered as part of a RTE cereal and the amount of calcium retention and absorption was measured by mass balance and stable isotope enrichment. Stool and urine samples were collected and analyzed for calcium excretion by atomic absorption spectrometry. Calcium retention was calculated as: Diet Ca−urine Ca−fecal Ca. Blood samples were also taken at prescribed intervals and serum and urine were analyzed for Ca by plasma mass spectrometry. The results of the analysis provided that inulin had no effect on the retention or absorption of calcium by subjects in this particular demographic.

A short description of test [3]: calcium absorbed and retained in postmenopausal women versus placebo. Format: in vivo, human. Conditions: inulin in a food product. From the text:
It is believed that food products prepared in accordance with the present invention, would however provide an enhanced benefit to certain selected demographic sections of the population, namely postmenopausal women.

`[Ca+2]` [calcium]: the “decrease in mean body weight” value in test [1] is 8 kg.
For the molecule inulin, in test [2], the “effect on absorption of calcium” value is reported as “no effect” and the “effect on retention of calcium” value was “no effect”. Moreover, the “level of calcium absorbed and retained versus placebo” value in test [3] was “higher”.
